Laboratory results as given in patent US4459290A, “C-23-Modified derivatives of OMT, pharmaceutical compositions and method of use” (priority 1982, dated 1984).
Values after ≈ are worked out from the molar mass of the structure shown. Like-named read-outs stand apart in the source and are kept apart here.

Key:
[1] = system: Streptococcus pyogenes C203; assay: ED50 in mice experimentally infected with S. pyogenes C203 (Table VIII); type: in vivo
Description: The C-23 modified derivatives of OMT of this invention have shown in vivo antimicrobial activity against experimental infections. When two doses of test compound were administered to mice experimentally infected with a gram-positive bacterium, S. pyogenes C203, the activity observed was measured as an ED50 value [effective dose in mg/kg to protect 50% of the test animals: see Warren Wick, et al., J. Bacteriol. 81, 233-235 (1961)].

[2] = system: Streptococcus pneumoniae Park I; assay: microbe, parasite or virus in culture; type: cell-based; details: Streptococcus pneumoniae
Description: (§1) Especially noteworthy is the improved activity against gram-negative bacteria for several derivatives when compared to the activity of OMT. […] The MIC's in Tables V and VI were determined by standard agar-dilution assays. The MIC's in Table VII were obtained using a conventional broth-dilution microtiter test.

[3] = system: Haemophilus influenzae R252; assay: MIC, standard agar-dilution assay (Table V); type: cell-based; details: Haemophilus influenzae
Description: (§2) The MIC's in Tables V and VI were determined by standard agar-dilution assays. The MIC's in Table VII were obtained using a conventional broth-dilution microtiter test.

[4] = system: Haemophilus influenzae Holt; assay: MIC, standard agar-dilution assay (Table V); type: cell-based; details: Haemophilus influenzae
Description: as §2

[5] = system: Streptococcus pyogenes C203; assay: MIC, standard agar-dilution assay (Table V); type: cell-based; details: Streptococcus pyogenes
Description: as §2

Escherichia coli TEM = assay: MIC, standard agar-dilution assay (Table V); type: cell-based; details: Escherichia coli
Description: as §2

Pasteurella multocida = assay: Protection of one-day-old chicks against Pasteurella multocida infection (Table IX); type: in vivo; details: subcutaneous 30 mg/kg × 2, 1 and 4 hours post-challenge
Description: The C-23 modified derivatives of OMT have also shown in vivo antibacterial activity against infections induced by gram-negative bacteria. Table IX summarizes the results of tests in which illustrative compounds were evaluated against Pasteurella infections in one-day-old chicks. The compounds were administered by subcutaneous injection at a dosage of 30 mg/kg, 1 and 4 hours post-challenge of the chicks with Pasteurella multocida (0.1 ml of a twenty-hour tryptose broth culture of an avian P. multocida given subcutaneously). In the tests, all ten non-medicated infected chicks died within 24 hours of Pasteurella challenge.

Mycoplasma hyorhinis = assay: MIC, broth-dilution microtiter test (Table VII); type: cell-based
Description: as §1

[6] = system: Pasteurella multocida 68C; assay: MIC, broth-dilution microtiter test (Table VII); type: cell-based; details: Pasteurella multocida
Description: as §1

[7] = system: Pasteurella multocida 40G; assay: MIC, broth-dilution microtiter test (Table VII); type: cell-based; details: Pasteurella multocida
Description: as §1

Streptococcus sp. 80 = assay: MIC, broth-dilution microtiter test (Table VII); type: cell-based; details: Streptococcus sp. 80; broth-dilution microtiter; read-out: MIC
Description: as §1

[8] = system: Pasteurella multocida 60A; assay: MIC, broth-dilution microtiter test (Table VII); type: cell-based; details: Pasteurella multocida
Description: as §1

[9] = system: Pasteurella hemolytica 23C; assay: MIC, broth-dilution microtiter test (Table VII); type: cell-based; details: Pasteurella, P. hemolytica 23C, read-out: MIC
Description: as §1

[10] = system: Pasteurella hemolytica 22C; assay: MIC, broth-dilution microtiter test (Table VII); type: cell-based; details: Pasteurella, P. hemolytica 22C, read-out: MIC
Description: as §1

[11] = system: Pasteurella multocida 17E; assay: MIC, broth-dilution microtiter test (Table VII); type: cell-based; details: Pasteurella multocida
Description: as §1

[12] = system: Pasteurella multocida 22A; assay: MIC, broth-dilution microtiter test (Table VII); type: cell-based; details: Pasteurella multocida; P. multocida 22A; broth-dilution microtiter; read-out: MIC
Description: as §1

Mycoplasma gallisepticum = assay: MIC, broth-dilution microtiter test (Table VII); type: cell-based; details: Mycoplasmoides gallisepticum
Description: as §1

Mycoplasma synoviae = assay: MIC, broth-dilution microtiter test (Table VII); type: cell-based; details: Mycoplasmopsis synoviae
Description: as §1

Staphylococcus aureus = assay: MIC, broth-dilution microtiter test (Table VII); type: cell-based; details: Staphylococcus aureus
Description: as §1

[13] = system: Pasteurella hemolytica 41D; assay: MIC, broth-dilution microtiter test (Table VII); type: cell-based; details: Pasteurella, P. hemolytica 41D, read-out: MIC
Description: as §1

[14] = system: Klebsiella pneumoniae X26; assay: MIC, standard agar-dilution assay (Table V); type: cell-based; details: Klebsiella pneumoniae
Description: as §1

Streptococcus Group 9960 = assay: MIC, standard agar-dilution assay (Table V); type: cell-based; details: GROUP9960
Description: as §1

[15] = system: Staphylococcus aureus X1.1; assay: MIC, standard agar-dilution assay (Table V); type: cell-based; details: Staphylococcus aureus, X1.1
Description: as §1

[16] = system: Streptococcus Group D X66; assay: MIC, standard agar-dilution assay (Table V); type: cell-based
Description: as §1

[17] = system: Staphylococcus epidermidis EPI2; assay: MIC, standard agar-dilution assay (Table V); type: cell-based; details: Staphylococcus epidermidis
Description: as §1

Escherichia coli EC14 = assay: MIC, standard agar-dilution assay (Table V); type: cell-based; details: Escherichia coli, EC14
Description: as §1

[18] = system: Klebsiella pneumoniae KAE; assay: MIC, standard agar-dilution assay (Table V); type: cell-based; details: Klebsiella pneumoniae
Description: as §1

Escherichia coli N10 = assay: MIC, standard agar-dilution assay (Table V); type: cell-based; details: Escherichia coli, N10
Description: as §1

[19] = system: Staphylococcus epidermidis EPI1; assay: MIC, standard agar-dilution assay (Table V); type: cell-based; details: Staphylococcus epidermidis
Description: as §1

Shigella sonnei N9 = assay: MIC, standard agar-dilution assay (Table V); type: cell-based
Description: as §1

[20] = system: Staphylococcus aureus S13E; assay: MIC, standard agar-dilution assay (Table V); type: cell-based; details: Staphylococcus aureus, S13E
Description: as §1

[21] = system: Staphylococcus aureus V41; assay: MIC, standard agar-dilution assay (Table V); type: cell-based; details: Staphylococcus aureus, V41
Description: as §1

[22] = system: Staphylococcus aureus X400; assay: MIC, standard agar-dilution assay (Table V); type: cell-based; details: Staphylococcus aureus
Description: as §1

[23] = C203, sc, mice, subcutaneous, doses given 1 and 4 hours postinfection, read-out: ED50, Subcutaneous
[24] = P. multocida 40G, broth-dilution microtiter, read-out: MIC
[25] = M. synoviae, broth-dilution microtiter, read-out: MIC
[26] = S. pneumoniae Park I, agar dilution, read-out: MIC
[27] = S. pyogenes C203, agar dilution, read-out: MIC

| Compound | ED50 ([1]; C203, po, read-out: ED50, Oral) [mg/kg] | ED50 [1, 23] [mg/kg] | MIC ([3]; R252) [µg/mL] | MIC [4] [µg/mL] | Number of deaths/number treated (Pasteurella multocida) | MIC (Mycoplasma hyorhinis) [µg/mL] | MIC ([6]; 68C) [µg/mL] | MIC [7, 24] [µg/mL] | MIC (Streptococcus sp. 80) [µg/mL] | MIC [9] [µg/mL] | MIC [10] [µg/mL] | MIC [12] [µg/mL] | MIC [13] [µg/mL] | MIC [15] [µg/mL] | MIC (Escherichia coli EC14) [µg/mL] | MIC [18] [µg/mL] | MIC (Escherichia coli N10) [µg/mL] | MIC (Shigella sonnei N9) [µg/mL] | MIC [20] [µg/mL] | MIC [21] [µg/mL] | further results |
| --- | --- | --- | --- | --- | --- | --- | --- | --- | --- | --- | --- | --- | --- | --- | --- | --- | --- | --- | --- | --- | --- |
| CCC1OC(=O)CC(O)C(C)C(OC2OC(C)C(O)C(N(C)C)C2O)C(CC=O)CC(C)C(=O)C=CC(C)=CC1CNC(=O)Cc1ccccc1 (stereo not drawn) [Compound 10, 23-Deoxy-23-N-(phenylacetyl)amino-OMT] | > 100 | 5.8 | 2 (≈ 2.8 µM) | 2 (≈ 2.8 µM) | 3/10 | 50 (≈ 69.9 µM) | 1.56 (≈ 2.18 µM) | 12.5 (≈ 17.5 µM) | 0.19 (≈ 0.266 µM) | 12.5 (≈ 17.5 µM) | 12.5 (≈ 17.5 µM) | 25 (≈ 35 µM) | 25 (≈ 35 µM) | 0.5 (≈ 0.699 µM) | > 128 | > 128 | > 128 | > 128 | 0.5 (≈ 0.699 µM) | 1 (≈ 1.4 µM) | MIC [2]: 0.25 µg/mL (≈ 0.35 µM); MIC ([5]; C203): 0.25 µg/mL (≈ 0.35 µM); MIC (Escherichia coli TEM; E. coli TEM, agar dilution, read-out: MIC): 32 µg/mL (≈ 44.8 µM); MIC ([8]; 60A): 3.12 µg/mL (≈ 4.36 µM); MIC ([11]; 17E): 3.12 µg/mL (≈ 4.36 µM); MIC (Mycoplasma gallisepticum): 1.56 µg/mL (≈ 2.18 µM); MIC (Mycoplasma synoviae; [25]): 0.19 µg/mL (≈ 0.266 µM); MIC (Staphylococcus aureus): 0.78 µg/mL (≈ 1.09 µM); MIC ([14]; X26): 8 µg/mL (≈ 11.2 µM); MIC (Streptococcus Group 9960): 0.5 µg/mL (≈ 0.699 µM); MIC [16]: 0.5 µg/mL (≈ 0.699 µM); MIC ([17]; EPI2): 1 µg/mL (≈ 1.4 µM); MIC ([19]; EPI1): 0.25 µg/mL (≈ 0.35 µM); MIC ([22]; X400): 1 µg/mL (≈ 1.4 µM) |
| CCC1OC(=O)CC(O)C(C)C(OC2OC(C)C(O)C(N(C)C)C2O)C(CC=O)CC(C)C(=O)C=CC(C)=CC1CN (stereo not drawn) [Compound 9, 23-Deoxy-23-amino-OMT] | > 100 | 2.6 | – | – | 0/10 | 12.5 (≈ 20.9 µM) | 12.5 (≈ 20.9 µM) | – | 1.56 (≈ 2.61 µM) | 12.5 (≈ 20.9 µM) | 12.5 (≈ 20.9 µM) | 25 (≈ 41.9 µM) | 25 (≈ 41.9 µM) | 8 (≈ 13.4 µM) | > 128 | > 128 | > 128 | > 128 | 8 (≈ 13.4 µM) | 8 (≈ 13.4 µM) | MIC [2, 26]: 1 µg/mL (≈ 1.68 µM); MIC ([3]; H. influenzae R252, ampicillin-resistant strain, agar dilution, read-out: MIC): 1 µg/mL (≈ 1.68 µM); MIC [5, 27]: 2 µg/mL (≈ 3.35 µM); MIC (Escherichia coli TEM): > 128 µg/mL; MIC ([7]; 40G): 12.5 µg/mL (≈ 20.9 µM); MIC ([8]; 60A): 6.25 µg/mL (≈ 10.5 µM); MIC ([11]; 17E): 6.25 µg/mL (≈ 10.5 µM); MIC (Mycoplasma gallisepticum): 0.78 µg/mL (≈ 1.31 µM); MIC (Mycoplasma synoviae): 0.78 µg/mL (≈ 1.31 µM); MIC (Staphylococcus aureus): 12.5 µg/mL (≈ 20.9 µM); MIC ([14]; X26): 16 µg/mL (≈ 26.8 µM); MIC (Streptococcus Group 9960): 8 µg/mL (≈ 13.4 µM); MIC [16]: 8 µg/mL (≈ 13.4 µM); MIC ([17]; EPI2): 8 µg/mL (≈ 13.4 µM); MIC ([19]; EPI1): 8 µg/mL (≈ 13.4 µM); MIC ([22]; X400): 8 µg/mL (≈ 13.4 µM) |
| CCC1OC(=O)CC(O)C(C)C(OC2OC(C)C(O)C(N(C)C)C2O)C(CC=O)CC(C)C(=O)C=CC(C)=CC1CNC(=O)[C@H](NC(=O)OC(C)(C)C)c1ccccc1 (single isomer, unassigned) [Compound 11, 23-Deoxy-23-[(D)-(-)-(N-t-BOC-phenylglycyl)amino]-OMT] | – | – | 8 (≈ 9.64 µM) | 8 (≈ 9.64 µM) | 10/10 | – | – | 12.5 (≈ 15.1 µM) | 0.78 (≈ 0.94 µM) | 25 (≈ 30.1 µM) | 25 (≈ 30.1 µM) | 12.5 (≈ 15.1 µM) | 50 (≈ 60.2 µM) | 1 (≈ 1.2 µM) | > 128 | > 128 | > 128 | > 128 | 2 (≈ 2.41 µM) | 2 (≈ 2.41 µM) | MIC [2, 26]: 0.25 µg/mL (≈ 0.301 µM); MIC [5, 27]: 0.5 µg/mL (≈ 0.602 µM); MIC (Escherichia coli TEM): > 128 µg/mL; MIC (Mycoplasma hyorhinis; M. hyorhinis, broth-dilution microtiter, read-out: MIC): > 50 µg/mL; MIC ([6]; P. multocida 68C, broth-dilution microtiter, read-out: MIC): 6.25 µg/mL (≈ 7.53 µM); MIC ([8]; P. multocida 60A, avian isolate, broth-dilution microtiter, read-out: MIC): 12.5 µg/mL (≈ 15.1 µM); MIC ([11]; P. multocida 17E, bovine isolate, broth-dilution microtiter, read-out: MIC): 6.25 µg/mL (≈ 7.53 µM); MIC (Mycoplasma gallisepticum; M. gallisepticum, broth-dilution microtiter, read-out: MIC): 0.78 µg/mL (≈ 0.94 µM); MIC (Mycoplasma synoviae; [25]): 0.78 µg/mL (≈ 0.94 µM); MIC (Staphylococcus aureus; S. aureus, broth-dilution microtiter, read-out: MIC): 3.12 µg/mL (≈ 3.76 µM); MIC ([14]; K. pneumoniae X26, agar dilution, read-out: MIC): 16 µg/mL (≈ 19.3 µM); MIC (Streptococcus Group 9960; Streptococcus Group 9960, agar dilution, read-out: MIC): 2 µg/mL (≈ 2.41 µM); MIC ([16]; Streptococcus Group D X66, agar dilution, read-out: MIC): 2 µg/mL (≈ 2.41 µM); MIC ([17]; S. epidermidis EPI2, agar dilution, read-out: MIC): 4 µg/mL (≈ 4.82 µM); MIC ([19]; S. epidermidis EPI1, agar dilution, read-out: MIC): 1 µg/mL (≈ 1.2 µM); MIC ([22]; S. aureus X400, methicillin-resistant strain, agar dilution, read-out: MIC): 4 µg/mL (≈ 4.82 µM) |
